The NIST ThermoML archive (doi:10.1021/je500275j)

Test: xn = mol fraction of the nth substance listed
Settings: 100 kPa, Liquid; for viscosity: Falling or rolling sphere viscometry; for mass density: Vibrating tube method

CCC1CCCCC1 [ethylcyclohexane] + C1CCC(C2CCCCC2)CC1
Settings | mass density [kg/m3] | viscosity [mPa·s]
293.15 K, x2 = 0 | 788.23 | 0.851
293.15 K, x2 = 0.1001 | 801.13 | 0.996
293.15 K, x2 = 0.2003 | 813.19 | 1.164
293.15 K, x2 = 0.3001 | 824.41 | 1.369
293.15 K, x2 = 0.4002 | 835.03 | 1.621
293.15 K, x2 = 0.498 | 844.69 | 1.848
293.15 K, x2 = 0.5996 | 854.14 | 2.139
293.15 K, x2 = 0.6996 | 862.93 | 2.451
293.15 K, x2 = 0.7983 | 871.02 | 2.874
293.15 K, x2 = 0.901 | 879.05 | 3.379
298.15 K, x2 = 0 | 784.2 | 0.796
298.15 K, x2 = 0.1001 | 797.17 | 0.934
298.15 K, x2 = 0.2003 | 809.29 | 1.079
298.15 K, x2 = 0.3001 | 820.56 | 1.264
298.15 K, x2 = 0.4002 | 831.23 | 1.488
298.15 K, x2 = 0.498 | 840.93 | 1.685
298.15 K, x2 = 0.5996 | 850.42 | 1.94
298.15 K, x2 = 0.6996 | 859.24 | 2.21
298.15 K, x2 = 0.7983 | 867.36 | 2.574
298.15 K, x2 = 0.901 | 875.42 | 3.003
303.15 K, x2 = 0 | 780.16 | 0.748
303.15 K, x2 = 0.1001 | 793.2 | 0.874
303.15 K, x2 = 0.2003 | 805.38 | 1.004
303.15 K, x2 = 0.3001 | 816.7 | 1.173
303.15 K, x2 = 0.4002 | 827.42 | 1.372
303.15 K, x2 = 0.498 | 837.16 | 1.547
303.15 K, x2 = 0.5996 | 846.72 | 1.77
303.15 K, x2 = 0.6996 | 855.55 | 2.005
303.15 K, x2 = 0.7983 | 863.7 | 2.322
303.15 K, x2 = 0.901 | 871.8 | 2.689
308.15 K, x2 = 0 | 776.11 | 0.704
308.15 K, x2 = 0.1001 | 789.22 | 0.82
308.15 K, x2 = 0.2003 | 801.46 | 0.938
308.15 K, x2 = 0.3001 | 812.84 | 1.091
308.15 K, x2 = 0.4002 | 823.6 | 1.258
308.15 K, x2 = 0.498 | 833.39 | 1.428
308.15 K, x2 = 0.5996 | 842.97 | 1.626
308.15 K, x2 = 0.6996 | 851.86 | 1.828
308.15 K, x2 = 0.7983 | 860.05 | 2.106
308.15 K, x2 = 0.901 | 868.18 | 2.425
313.15 K, x2 = 0 | 772.04 | 0.665
313.15 K, x2 = 0.1001 | 785.22 | 0.77
313.15 K, x2 = 0.2003 | 797.53 | 0.879
313.15 K, x2 = 0.3001 | 808.96 | 1.018
313.15 K, x2 = 0.4002 | 819.79 | 1.175
313.15 K, x2 = 0.498 | 829.62 | 1.32
313.15 K, x2 = 0.5996 | 839.25 | 1.492
313.15 K, x2 = 0.6996 | 848.18 | 1.675
313.15 K, x2 = 0.7983 | 856.4 | 1.92
313.15 K, x2 = 0.901 | 864.56 | 2.197
318.15 K, x2 = 0 | 767.96 | 0.629
318.15 K, x2 = 0.1001 | 781.22 | 0.727
318.15 K, x2 = 0.2003 | 793.59 | 0.825
318.15 K, x2 = 0.3001 | 805.08 | 0.951
318.15 K, x2 = 0.4002 | 815.96 | 1.094
318.15 K, x2 = 0.498 | 825.85 | 1.225
318.15 K, x2 = 0.5996 | 835.52 | 1.381
318.15 K, x2 = 0.6996 | 844.5 | 1.542
318.15 K, x2 = 0.7983 | 852.76 | 1.759
318.15 K, x2 = 0.901 | 860.95 | 2.002
